Experimental data reported in US20250296948A1, “SYNTHESIS OF NUCLEOSIDE DERIVATIVES” (Nucana plc, priority 2022, published 2025).

Key:
[1] = 12 month dry powder stability, HPLC assay; format: physicochemical
From the text: NUC-3373 prepared according to Example 3, above, was packed into a transparent LDPE bag which was then filled with nitrogen and tied with a strip seal. This bag was then placed into another transparent LDPE bag which was also filled with nitrogen. A silica gel packet was placed between the two bags before the outermost bag was tied with a strip seal. These bags were then placed in a triple laminated sun light barrier bag which was sealed with a heat sealer. The bags were kept in a HDPE container. The NUC-3373 was initially assayed by HPLC after manufacture then after 3, 6, 9 and 12 months of storage.

[2] = Solution stability, alpha naphthol (0.60 RRT) in DMA:Saline (80:20 v/v); format: physicochemical; conditions: solutions in DMA:Saline (80:20 v/v); particularly at room temperature
[3] = 6 month dry powder stability, HPLC assay; format: physicochemical; conditions: Tables 2 and 3, prepared according to the process of the invention
[4] = dog, compared with 5-FU; cited from earlier work
[5] = system: a range of cancer models; conditions: compared with 5-fluorouracil; cited from earlier work
[6] = system: tumour cells; conditions: non-clinical studies, compared with 5-FU and capecitabine; cited from earlier work
[7] = Solution stability in DMA:Saline (80:20 v/v) by UPLC; format: physicochemical; conditions: 2-8° C.; for Assay / Purity / Total Impurities: DMA:Saline (80:20 v/v) solution, UPLC
Protocol: The inventors have found in further work that DMA:Saline (80:20 v/v) solutions of samples obtained according to the process of the invention show no loss of purity or assay, and alpha naphthol impurity up to 12 months at 2-8° C.

C[C@H](NP(=O)(OC[C@H]1O[C@@H](n2cc(F)c(=O)[nH]c2=O)CC1O)Oc1cccc2ccccc12)C(=O)OCc1ccccc1 (stereo partly drawn) [NUC-3373, 5-fluoro-2′-deoxyuridine-5′-O-[1-naphthyl (benzoxy-L-alaninyl)] phosphate]
HPLC assay (% w/w on anhydrous and solvent free basis) ([1]; 5 ± 3° C., 3rd month): 99.9 % w/w | HPLC assay (% w/w on anhydrous and solvent free basis) ([1]; 5 ± 3° C., 6th month): 100.9 % w/w | HPLC assay (% w/w on anhydrous and solvent free basis) ([1]; 5 ± 3° C., 9th month): 101.5 % w/w | HPLC assay (% w/w on anhydrous and solvent free basis) ([1]; 5 ± 3° C., 12th month): 99.4 % w/w | HPLC assay (% w/w on anhydrous and solvent free basis) ([1]; 5 ± 3° C., Initial): 99.6 % w/w | HPLC assay (% w/w on anhydrous and solvent free basis) ([1]; 25 ± 2° C., 3rd month): 99.6 % w/w | HPLC assay (% w/w on anhydrous and solvent free basis) ([1]; 25 ± 2° C., 6th month): 100.7 % w/w | HPLC assay (% w/w on anhydrous and solvent free basis) ([1]; 25 ± 2° C., 9th month): 101.5 % w/w | HPLC assay (% w/w on anhydrous and solvent free basis) ([1]; 25 ± 2° C., 12th month): 99.4 % w/w | HPLC assay (% w/w on anhydrous and solvent free basis) ([1]; 25 ± 2° C., Initial): 99.6 % w/w | time chemically stable ([1]; at both 2-8° C. and 15-30° C.): at least 12 months | stability of solutions compared with other methods of preparation [2]: more stable than those prepared by other methods | thermal stability compared with other methods of preparation [3]: thermally more stable than those prepared by other methods | tolerability [4]: significantly better tolerated than 5-FU | activity in vitro against a range of cancer models [5]: outstanding and far superior to the results obtained with 5-fluorouracil | inhibition of tumour cell growth [6]: much greater inhibition of tumour cell growth | Assay ([7]; 3rd month): 99% | Purity ([7]; 3rd month): 99.9% | Total Impurities ([7]; 3rd month): 0.07% | Assay ([7]; 6th month): 101% | Purity ([7]; 6th month): 99.9% | Total Impurities ([7]; 6th month): 0.08% | Assay ([7]; 12th month): 101% | Purity ([7]; 12th month): 99.9% | Total Impurities ([7]; 12th month): 0.09% | Assay ([7]; Initial): 101% | Purity ([7]; Initial): 99.9% | Total Impurities ([7]; Initial): 0.07% | time solutions chemically and physically stable ([7]; DMA:Saline (80:20 v/v) solutions): at least 12 months
